Here are results for 87 molecules from a melting point compilation (Tetko et al.; mined from patent text by program, amines drawn as free bases though some values may be those of a salt).

For orientation: melting point means the temperature, or range, at which the solid turns liquid.

The molecule `CCOC(=O)c1cnc2onc(C)c2c1O` displayed a melting point of 150 to 152 °C.

For `CCCCC1(N(C)C)CCC(c2[nH]c3ccc(C#N)cc3c2C)CC1` (configuration not stated), the melting point was in the range of 162 to 166 °C.

As for `CCOC(=O)c1cc2c(C(F)(F)F)cc(OCC(=O)O)cc2n1C`, the melting point was 200 to 202 °C.

For the molecule `COC(=O)c1cccc(CN2C(=O)N(c3ccccc3Br)Cc3cnc(Nc4ccccc4)nc32)c1`, the melting point lay within 79 to 82 °C.

Molecule `CNc1nc2c(s1)C(=O)CC(C)(C)C2` registered a melting point of 217 to 218 °C.

`Nc1ccc(C(=O)O)cc1S(N)(=O)=O`: the melting point fell in the range of 214 to 219 °C.

`COC(=O)c1ccccc1S(=O)(=O)NC(=O)Nc1nnc(C)c(C)n1` gave a melting point of 150 to 151 °C.

For `CCCNC1=NS(=O)(=O)c2cc(C(=O)O)ccc2N1`, the melting point is greater than 310 °C.

The molecule `CC(=O)N[C@@H](Cc1cscn1)C(=O)O` displayed a melting point of 186 °C.

The molecule `CS(=O)(=O)Nn1c(=O)[nH]c2cc(C(F)(F)F)c(-n3cnc(Br)c3)cc2c1=O` came in with a melting point of 229 to 233 °C.

`C[C@@H](c1ccc(-c2ccc(C#N)cn2)cc1)N1CC[C@](CC(C)(C)O)(c2ccccc2)OC1=O`: the melting point was 160 to 162 °C.

In turn, `Cc1cc2c(Cl)cc(F)c(-n3c(=O)cc(C(F)(F)F)n(C)c3=O)c2o1` gave a melting point of 196 to 197 °C.

For `C#CC(C)(O)C1CCC2C3CC=C4CC(F)CCC4(C)C3CCC21C` (configuration not stated), the melting point was 213 to 214 °C.

`CC(C)(C)OC(=O)N[C@H]1C(=O)N[C@H]1CO` (relative stereo) yielded a melting point of 128 to 131 °C.

For the molecule `CCC(=NO)c1ccc(Cl)cc1`, the melting point is 56 to 57.5 °C.

Turning to `CC(C)(C)CN1C(=O)[C@@H](CC(=O)Nc2cccc(-c3nnn[nH]3)c2)O[C@H](c2ccccc2Cl)c2cc(Cl)ccc21` (relative stereo), the melting point was in the range of 218 to 220 °C.

`O=C(O)c1cc2c(c(O)c1Br)OCO2`: the melting point was 196 to 205 °C.

`CC(c1cccc(O)c1)N(C)C` (configuration not stated) gave a melting point of 85 to 86 °C.

In the case of `O=C1CCC(c2ccc3[nH]c(-c4ccccc4)cc3c2)=NN1`, the melting point fell in the range of 270 to 275 °C.

Regarding `Cn1c2ccc(Cl)cc2c2cc(C(=O)N3CCOCC3)sc21`, the melting point is 178 to 182 °C.

Consider `Nc1nn(CCN2CCCCC2)cc1-c1ccccc1`, for which the melting point stood at 96 °C.

`CCCCCCCCCCCCCCCCCCOc1ccc(NC(=O)c2ccc(OC(C)=O)cc2)cc1OCCCCCCCCCCCCCCCCCC` gave a melting point of 107 °C.

Take `CS(=O)(=O)Oc1cc(N)c(F)cc1Cl`: the melting point lay in the range of 79 to 80 °C.

Consider `O=CC(=O)c1ccc(OCCc2ccccc2)cc1`, for which the melting point lay in the range of 44 to 59 °C.

With `COc1ccc(C)c2c1C(C=O)C1CCCCC21` (configuration not stated), the melting point lay within 92 to 93 °C.

For the molecule `CCN1C(=O)NC(=O)C1O` (configuration not stated), the melting point was 119 to 120 °C.

For `OCCc1ccc(Nc2ncc3c(n2)-c2ccccc2C(c2ccc(Cl)c(Cl)c2)C3)cc1` (configuration not stated), the melting point was 94 to 96 °C.

`C#Cc1ccc(-c2ccc(Br)cc2)cc1` gave a melting point of 145 to 150 °C.

As for `CCOC(Cc1ccc(OCCN2CCSc3ccccc32)cc1)C(=O)NCc1ccccc1` (configuration not stated), the melting point fell in the range of 92 to 93 °C.

The molecule `COc1ccc(-c2cc3cc(F)c(F)cc3[nH]2)cc1NC(=S)Nc1cccc(C(=O)O)c1` gave a melting point of 221 to 223 °C.

Regarding `O=C(O)CCSc1ccc(CNC(=O)C2Cc3ccccc3N2S(=O)(=O)c2ccc(-c3cccc(C(F)(F)F)c3)cc2)cc1` (configuration not stated), the melting point lay in the range of 77 to 81 °C.

Molecule `COc1ccc(C2=NN(C)C(=O)[C@H]3CCCC[C@@H]23)cc1OC` (relative stereo) had a melting point of 110 to 112 °C.

Turning to `CCCCN1CC(=O)N2[C@@H](c3ccc(N)cc3)c3[nH]c4ccccc4c3C[C@@H]2C1=O` (relative stereo), the melting point is 192 °C.

`Cc1cnc(CO)cc1C(c1cc(F)ccc1F)S(=O)(=O)c1ccc(Cl)cc1` (configuration not stated) registered a melting point of 196 to 198 °C.

`Brc1ccc(OCc2ccccn2)cc1/C=C/c1cc(/C=C/c2ccc3cc[nH]c3c2)[nH]n1`: the melting point is 100 to 106 °C.

`COc1cc(C(C)C)c(OCC#N)cc1I` had a melting point of 67.5 to 68.8 °C.

In turn, `CN(C)C=Nc1c(Cl)cc(N=Cc2ccc(N(C)C)c(Br)c2)cc1Cl` yielded a melting point of 140 to 141 °C.

In turn, `C[C@]1(COc2ccc(N3CCC(OCc4ccc(C(F)(F)F)cc4)CC3)cc2)Cn2cc([N+](=O)[O-])nc2O1` gave a melting point of 217 to 220 °C.

As for `CCn1cc(C2(c3cccc(-c4cccnc4F)c3)N=C(N)N(C)C2=O)cc1COC` (configuration not stated), the melting point was 154 to 157 °C.

Molecule `CCOC(=O)c1c2n(c3c(F)c(N4CCC(NC(=O)C(F)(F)F)C4)c(F)cc3c1=O)C(C)S2` (configuration not stated) returned a melting point of 235 to 237 °C.

`O=c1c(-c2ccccc2)coc2cc(OCC3CO3)ccc12` (configuration not stated) returned a melting point of 151 to 152 °C.

Molecule `CN(CC(O)C(N)C(=O)c1cccc(C(F)(F)F)c1)c1ccc(Cl)cc1` (configuration not stated) yielded a melting point of 128 to 132 °C.

`c1ccc2c(c1)nc(NCCN1CCNCC1)c1c3ccccc3[nH]c21`: the melting point lay within 210 to 211 °C.

As to `CC1(C)[C@@H](CNc2ncccc2C#N)CC[C@@]1(C)NCC(=O)N1C[C@@H](F)C[C@H]1C#N`, the melting point was in the range of 96 to 99 °C.

In the case of `CCOC(=O)C1=C(COCc2nnc(N)s2)NC(C)=C(C(=O)OC)C1c1cccc(Cl)c1Cl` (configuration not stated), the melting point worked out at 194 °C.

Consider `C=CCc1cc(CC(=O)NCCCC)ccc1O`, for which the melting point is 48 to 50 °C.

For the molecule `CCCC1(C(C)C)NC(=S)N(c2cc(Cl)cc(Cl)c2)C1=O` (configuration not stated), the melting point stood at 160 °C.

In turn, `COc1cc(N)c(Cl)cc1C(=O)NCC1CCN(CCCOCc2ccccc2)CC1` displayed a melting point of 82 to 83 °C.

On to `Cc1ccc2oc(Br)c(-c3ccccc3)c2c1`, for which the melting point fell in the range of 52 to 57 °C.

`COc1cc2c(cc1OC)N(C)C(=O)CN=C2c1cccc(CO)c1` yielded a melting point of 143 to 146 °C.

Consider `CN(c1cc(N2C(=O)C3CC(Cl)CN3C2=O)c(F)cc1Cl)S(=O)(=O)CCl` (configuration not stated), for which the melting point lay within 119 to 124 °C.

With `NS(=O)(=O)C(F)(F)C(F)(F)C(F)(F)C(F)(F)C(F)(F)C(F)(F)F`, the melting point is 165 to 168 °C.

`O=c1[nH]ncn1-c1ccc(-n2ncn(-c3ccc(OCC(F)(F)C(F)F)cc3)c2=O)cc1` came in with a melting point of 297 to 298 °C.

The molecule `O=C(NCc1ccccc1)Oc1ccc2c(ccn2Cc2ccncc2)c1` displayed a melting point of 112 to 114 °C.

Molecule `O=C1C2=C(CCCC2)C(=O)N1c1ccc(Br)c(O)c1` came in with a melting point of 247 to 248 °C.

With `COC(=O)C(Cc1ccc(OCc2ccccc2)cc1)NC(=O)c1cc2ccc(-c3ccc(Cl)cc3)cc2[nH]1` (configuration not stated), the melting point fell in the range of 196 to 198 °C.

Molecule `COc1ccc2cccc(N3CCN(CCC4CC(=O)Nc5ccccc54)CC3)c2c1` (configuration not stated) showed a melting point of 177 to 178 °C.

In the case of `C=CCONC(=O)c1nc(-c2ccc(Cl)c(OC)c2F)nc(N)c1C=C`, the melting point lay in the range of 98 to 101 °C.

`NC(=NCC(F)(F)F)Nc1ccn(CCCCO)n1` had a melting point of 105 to 106 °C.

`CCN(CC)c1ccc(/C=C/c2cc(/C=C/c3ccc4cc[nH]c4c3)[nH]n2)cc1` registered a melting point of 201 to 204 °C.

Turning to `COc1cccc(-c2cn(-c3ccccc3)c3ncnc(N)c23)c1`, the melting point lay within 159 to 160 °C.

For the molecule `CC(=O)C(Cc1ccccc1)Nc1nc2ccc(C(C)C)cc2s1` (configuration not stated), the melting point was 107 to 110 °C.

Molecule `COC(=O)c1nc(CI)n(-c2ccc(Cl)cc2C(=O)c2ccccc2Cl)n1` returned a melting point of 125 to 128 °C.

Turning to `CCOC(=O)c1nc2ccc(I)cc2[nH]1`, the melting point was 166 to 168 °C.

The molecule `COCCOc1cc([N+](=O)[O-])c2[nH]c(C(=O)O)cc2c1` registered a melting point of 192 to 193 °C.

Regarding `CN(C)CCC(Oc1ccc(C(F)(F)F)cc1)c1ccccc1` (configuration not stated), the melting point was in the range of 117 to 119 °C.

`CC(=NOCCOc1ccc(CC2SC(=O)NC2=O)cc1)c1ccc(-c2ccc(F)cc2)cc1` (configuration not stated) came in with a melting point of 155 to 156 °C.

`CC1CCN(c2cc(-c3ncccn3)nc(Cl)c2-c2c(F)cccc2Cl)CC1` gave a melting point of 129 °C.

For the molecule `Cn1c2cccc(C#N)c2c2nc3ccccc3nc21`, the melting point was 237 °C.

`N#Cc1cccc(C2OCCO2)n1` yielded a melting point of 64 °C.

For the molecule `O=C(C=C1NC(c2ccc(F)cc2)=NC1(C(F)(F)F)C(F)(F)F)c1ccc(F)cc1`, the melting point lay within 121 to 123 °C.

As to `CC(C)(C)c1cc(I)c(O)c(CNS(=O)(=O)O)c1`, the melting point was 172 to 180 °C.

With `O=C1c2ccccc2C(=O)N1CCCC1c2ccccc2C=Cc2ccccc21`, the melting point is 126 to 132 °C.

Regarding `COc1cn(-c2cccc(C(F)(F)F)c2)nc(C(=O)N(C)OC)c1=O`, the melting point lay in the range of 170 to 171 °C.

`CCOC(=O)c1cnn(-c2ccc(F)cc2)c1O` returned a melting point of 127 to 128 °C.

On to `Cc1nnc(-c2ccc3occ(-c4cccc(OCc5ccccc5)c4)c3c2)o1`, for which the melting point lay within 96 to 97 °C.

In turn, `CCCn1nc2c(N)nc3ccccc3c2c1CCCc1cc(-c2ccccc2)no1` yielded a melting point of 176 to 178 °C.

Regarding `Cc1cc(C2(C(F)(F)F)CC(c3ccc(F)cc3)=NO2)ccc1NC(=O)c1cccc(I)c1C(=O)NC(C)C` (configuration not stated), the melting point lay within 128 to 130 °C.

Take `O=C(c1ccccc1)c1cccc2c1OCC2C(=O)O` (configuration not stated): the melting point fell in the range of 163 to 165 °C.

Turning to `O=C(C1=COc2cc(O)ccc2O1)N1CCN(C(c2ccc(F)cc2)c2ccc(F)cc2)CC1`, the melting point amounted to 163 °C.

In turn, `Cc1cccc(C)c1OP(=O)(c1ccccc1)c1cc(O)ccc1O` (configuration not stated) displayed a melting point of 172 °C.

In turn, `Cc1ccc2c(n1)CCCC2(O)c1ccccc1` (configuration not stated) had a melting point of 130 to 134 °C.

With `CCOC(=O)c1nn(-c2cccc(Br)c2)c(=O)c2c(N)scc12`, the melting point was 163 to 165 °C.

On to `COc1ccc(-c2nc(-c3ccccc3)c(N(C)c3ccccc3)s2)cc1`, for which the melting point was 100 to 101 °C.

`O=C(O)Cc1ccc(NC(=O)C(COc2cccc(Cl)c2)NS(=O)(=O)c2ccc(Cl)cc2)cc1` (racemic): the melting point was in the range of 220 to 221 °C.

Turning to `CCc1noc(NS(=O)(=O)c2ccccc2)c1Br`, the melting point lay in the range of 90 to 93 °C.

For the molecule `COc1ccc(NC(=O)CCc2ccc(-c3c(C)sc4nc(=NS(=O)(=O)c5ccc(C)cc5)sn34)cc2)cc1OC`, the melting point was in the range of 203 to 204 °C.
